In PMC5521769, “Identification of odorant binding proteins and chemosensory proteins in Microplitis mediator as well as functional characterization of chemosensory protein 3” (PLoS ONE, 2017):
Where two headings read alike, the source gives them in different places. Blank lines part the entries; values can stand above or below the compound they belong to.

How the values were obtained:
[1] = biological target: recombinant MmedCSP3 (Microplitis mediator, UniProt A0A219T7S8); experiment: biochemical; type: binding
Protocol: The bis-ANS and all compounds were dissolved in HPLC purity-grade methanol with a concentration of 1 mM.
The bound chemical was evaluated based on its fluorescence intensity with the assumption that the protein was 100% active with a stoichiometry of 1: 1 (protein: ligand) saturation. The binding curves were linearized using a Scatchard plot, and the dissociation constants of the competitors were calculated from the corresponding IC50 values based on the following equation: Ki = [IC50] / (1 + [bis-ANS] / Kbis-ANS), where [bis-ANS] is the free concentration of bis-ANS and Kbis-ANS is the dissociation constant of the complex protein / bis-ANS [33].

[2] = tested on: MmedOBPs and MmedCSPs (MmdeOBP1–10, MmedCSP1); parameters: method as in PMID 20388293; settings: MmdeOBP1–10 and MmedCSP1; ref [22], [23]; cited from earlier work
[3] = tested on: M. mediator; parameters: method as in PMID 20388293; settings: ref [22], [23]; cited from earlier work
[4] = protein and bis-ANS at 2 μM, competitor 2–40 μM, 50 mM Tris-HCl pH 7.4, mean ± SD, text values are ranges over the named group, read-out: Ki, dissociation constant

recombinant MmedCSP3, sequence (A0A219T7S8 entry or part of it): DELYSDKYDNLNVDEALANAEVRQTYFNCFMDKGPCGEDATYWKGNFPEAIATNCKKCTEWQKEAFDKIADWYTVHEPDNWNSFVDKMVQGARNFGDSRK

Structure (SMILES): CC/C=C\CCOC(C)=O [(Z)-3-hexenyl acetate]
binding affinity to MmedOBPs and MmedCSPs [2]: no any binding affinity
electrophysiological and behavioral responses of M. mediator [3]: could elicit electrophysiological and behavioral responses

Structure (SMILES): COC(=O)c1ccccc1O [Methyl salicylate]
Ki [1]: 39.22 ± 0.25 µM

Structure (SMILES): CCC/C=C/C=O [(E)-2-hexen-1-al]
binding affinity to MmedOBPs and MmedCSPs [2]: no any binding affinity
electrophysiological and behavioral responses of M. mediator [3]: could elicit electrophysiological and behavioral responses

Structure (SMILES): CCCCCCCCCCCCCCCC(=O)O [Palmitic acid]
Ki [1]: 22.2 ± 1.82 µM

Structure (SMILES): CCCCCCCC/C=C\CCCCCCCC(=O)O [Octadecenoic acid]
Ki [1, 4]: 18.2 ± 1.74 µM

Next, values leading:

Kd ([1]; 2 μM protein titrated with bis-ANS 2–16 μM, 50 mM Tris-HCl pH 7.4, read-out: dissociation constant of the MmedCSP3 / bis-ANS complexes): 1.75 ± 0.42 µM
Structure (SMILES): O=S(=O)(O)c1cccc2c(-c3ccc(Nc4ccccc4)c4c(S(=O)(=O)O)cccc34)ccc(Nc3ccccc3)c12 [bis-ANS, 4, 4’-dianilino-1,1’-binaphthyl-5,5’-sulfonic acid, reference compound]

Ki [1, 4]: 17.6 ± 1.19 µM
Structure (SMILES): CCCC/C=C\CCCCCCCCCCO [cis-11-hexadecanol]

Ki [1, 4]: 26.8 ± 1.27 µM
Structure (SMILES): C=C/C=C(\C)CC/C=C(\C)CCC=C(C)C [TMTT, (3E, 7E)-4,8, 12-trimethyltrideca-1,3,7, 11-tetraene]

Ki [1, 4]: 17.2 ± 1.67 µM
Structure (SMILES): CCCC/C=C\CCCCCCCCCC=O [cis-11-hexadecenyl Aldehyde, cis-11-hexadecenyl aldehyde]

Ki [1, 4]: 18.8 ± 2.06 µM
Structure (SMILES): CC/C=C/CCCCCCCCCCOC(C)=O [trans-11-tetradecenyl acetate]

Ki [1, 4]: 32.9 ± 7.43 µM
Structure (SMILES): CCCC(=O)OCC [Ethyl butyrate]
